From publication PMC6830257, “Optimisation of novel 4, 8-disubstituted dihydropyrimido[5,4-b][1,4]oxazine derivatives as potent GPR 119 agonists” (Journal of Enzyme Inhibition and Medicinal Chemistry, 2019)
Where two headings read alike, the source gives them in different places.

How the values were obtained:
GPR119 = system: GPR119; set-up: method as in PMID 30100020, PMID 30685641; conditions: earlier work of the authors ref 31, 32; read-out: EC50 (GPR119 agonistic potency); cited from earlier work
mice = system: mice; set-up: method as in PMID 30100020, PMID 30685641; conditions: compared with positive control ref 31, 32; cited from earlier work
human GPR119 = biological target: T1, human GPR119 (Homo sapiens, UniProt Q8TDV5); assay: hGPR119 agonistic activity, LANCE Ultra cAMP accumulation assay in CHO K1 cells stably expressing human GPR119; format: cell-based; conditions: for Emax: CHO-K1, 1 h, read-out: GPR119 activation %max (inherent activity)
T1 construct: expressed in transfected cells; host or cells: CHO K1
T1 sequence (Q8TDV5 1-335): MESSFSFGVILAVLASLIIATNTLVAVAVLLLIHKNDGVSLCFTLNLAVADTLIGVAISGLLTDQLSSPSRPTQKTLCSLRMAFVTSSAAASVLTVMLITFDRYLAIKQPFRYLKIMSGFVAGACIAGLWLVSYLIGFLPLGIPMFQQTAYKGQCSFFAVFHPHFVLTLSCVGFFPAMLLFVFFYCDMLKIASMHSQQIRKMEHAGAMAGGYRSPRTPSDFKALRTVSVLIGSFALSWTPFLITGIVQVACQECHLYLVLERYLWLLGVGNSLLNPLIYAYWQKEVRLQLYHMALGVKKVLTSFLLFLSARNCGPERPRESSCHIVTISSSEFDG
Experimental: CHO K1 cells stably transfected with human GPR119 were grown at 37 °C, […] and 5% CO2 in 75 cm flasks containing DMEM/F12 (1:1) media with added 10% FBS (Gibco®), Geneticin (Gibco®) and grown until 90% confluent. Cells were then washed (PBS), lifted with cell dissociation solution (Invtrogen®), counted and used for cAMP accumulation assays and/or passaging (1:10). Following the manufacturer’s instructions for the LANCE® Ultra cAMP assay (Perkin Elmer), cell transfected with hGPR119 were centrifuged (1000 rpm, 5 min), re-suspended in cAMP assay buffer (HBSS, 0.1% BSA, 0.5 mM IBMX and 5 mM HEPES) and seeded at 5000 cells/well in optiplate-384 (Perkin Elmer). […] Cell lysis buffers (4X Eu-cAMP tracer solution and 4X ULight™-anti-cAMP solution) were added to each well, and the plates were incubated at r. t. for 1 h before being read on Envision (Perkin Elmer). The assay was performed for three replicates for each concentration.

C57BL/6N mice = assay: oral glucose tolerance test (oGTT), single dose, in C57BL/6N mice; format: in vivo; conditions: for blood glucose AUC0–120 min: mean ± SE, n = 8, vehicle 24.69 ± 3.08; for reduction of blood glucose AUC0–120 min: oGTT 3 g/kg glucose 4 h after dose, vs vehicle, C57BL/6N mice; for blood glucose reduction effect: single dose 15 and 30 mg/kg, oGTT in C57BL/6N mice
Experimental: Figure 2. Single dose of compounds 10 and 15 on oGTT in C57BL/6N mice.
AUC0–2h(mmol/L) = (BG0+BG15)×0.25/2 + (BG15+BG30)×0.25/2 + (BG30+BG60)×0.5/2 + (BG60+BG90)×0.5/2 + (BG90+BG120)×0.5/2.

[1] = cAMP stimulation % compared to maximal effect of GSK1292263
[2] = human GPR119 in CHO K1 cells, cAMP, 1 h incubation, read-out: GPR119 activation EC50

Compound | Emax (human GPR119; [1]) [%] | EC50 (human GPR119; [2]) [nM] | GPR119 activation %max (inherent activity) (human GPR119; [1]) [%] | further results
CC(C)(C)OC(=O)N1[C@@H]2CC[C@H]1C[C@@H](Nc1ncnc3c(Nc4ccc(S(C)(=O)=O)cc4F)ncnc13)C2 [Compound 1] | – | – | – | EC50 (GPR119): 2.2 nM; glucose-lowering effect in oGTT (mice): did not show the significant glucose-lowering effect
CC(C)(C)OC(=O)N1[C@@H]2CC[C@H]1C[C@@H](Nc1ncnc3c(Nc4ccc(C#N)cc4F)ncnc13)C2 [Compound 2] | – | – | – | EC50 (GPR119): 8.1 nM; glucose-lowering effect in oGTT (mice): did not show the significant glucose-lowering effect
CC(C)(C)OC(=O)N1C2CCC1CC(Nc1ncnc3c1OCCN3c1ccc(C#N)cc1F)C2 (stereo not drawn) [Compound 10, tert-Butyl (endo)-3-((8-(4-cyano-2-fluorophenyl)-7,8-dihydro-6H-pyrimido[5,4-b][1,4]oxazin-4-yl)amino)-8-azabicyclo[3.2.1]octane-8-carboxylate] | – | – | – | EC50 (human GPR119): 13 nM; Emax (human GPR119): 83.9%; blood glucose AUC0–120 min (C57BL/6N mice; 15 mg/kg single dose): 22.1 ± 4.28 mmol·h/L; reduction of blood glucose AUC0–120 min (C57BL/6N mice; 15 mg/kg single dose): 10.7%; blood glucose AUC0–120 min (C57BL/6N mice; 30 mg/kg single dose): 20.1 ± 2.27 mmol·h/L; reduction of blood glucose AUC0–120 min (C57BL/6N mice; 30 mg/kg single dose): 18.8%; blood glucose reduction effect (C57BL/6N mice): dose-dependent manner
CC(C)(C)OC(=O)N1C2CCC1CC(CNc1ncnc3c1OCCN3c1ccc(C#N)cc1F)C2 (stereo not drawn) [Compound 11, tert-Butyl (exo)-3-(((8-(4-cyano-2-fluorophenyl)-7,8-dihydro-6H-pyrimido[5,4-b][1,4]oxazin-4-yl)amino)methyl)-8-azabicyclo[3.2.1]octane-8-carboxylate] | 45.9 | 1800 | – | –
CC(C)(C)OC(=O)N1C2CCCC1CC(Nc1ncnc3c1OCCN3c1ccc(C#N)cc1F)C2 (centres unmarked) [Compound 13, tert-Butyl 3-((8-(4-cyano-2-fluorophenyl)-7,8-dihydro-6H-pyrimido[5,4-b][1,4]oxazin-4-yl)amino)-9-azabicyclo[3.3.1]nonane-9-carboxylate] | 22.7 | > 10000 | – | –
N#Cc1ccc(N2CCOc3c(NC4CC5CCC(C4)N5CC(=O)N4CCn5c(nnc5C(F)(F)F)C4)ncnc32)c(F)c1 (stereo not drawn) [Compound 18, 3-Fluoro-4-(4-(((endo)-8-(2-oxo-2-(3-(trifluoromethyl)-5,6-dihydro-[1,2,4]triazolo[4,3-a]pyrazin-7(8H)-yl)ethyl)-8-azabicyclo[3.2.1]octan-3-yl)amino)-6,7-dihydro-8H-pyrimido[5,4-b][1,4]oxazin-8-yl)benzonitrile] | – | 110 | 100 | –
CC(C)(C)OC(=O)N[C@@H]1CCCN(C(=O)CN2[C@@H]3CC[C@H]2C[C@@H](Nc2ncnc4c2OCCN4c2ccc(C#N)cc2F)C3)C1 [Compound 19, tert-Butyl ((R)-1-(2-((endo)-3-((8-(4-cyano-2-fluorophenyl)-7,8-dihydro-6H-pyrimido[5,4-b][1,4]oxazin-4-yl)amino)-8-azabicyclo[3.2.1]octan-8-yl)acetyl)piperidin-3-yl)carbamate] | – | 68 | 75.6 | –
CC(C)(C)OC(=O)N1CCN(C(=O)CN2[C@@H]3CC[C@H]2C[C@@H](Nc2ncnc4c2OCCN4c2ccc(C#N)cc2F)C3)CC1 [Compound 20, tert-Butyl 4-(2-((endo)-3-((8-(4-cyano-2-fluorophenyl)-7,8-dihydro-6H-pyrimido[5,4-b][1,4]oxazin-4-yl)amino)-8-azabicyclo[3.2.1]octan-8-yl)acetyl)piperazine-1-carboxylate] | – | 82 | 79.6 | –
CCc1cnc(N2CCC(Nc3ncnc4c3OCCN4c3ccc(C#N)cc3F)CC2)nc1 [Compound 23, 4-(4-((1-(5-Ethylpyrimidin-2-yl)piperidin-4-yl)amino)-6,7-dihydro-8H-pyrimido[5,4-b][1,4]oxazin-8-yl)-3-fluorobenzonitrile] | 70.7 | 44 | – | –
N#Cc1ccc(N2CCOc3c(NC4CCN(c5ncc(Cl)cn5)CC4)ncnc32)c(F)c1 [Compound 24, 4-(4-((1-(5-Chloropyrimidin-2-yl)piperidin-4-yl)amino)-6,7-dihydro-8H-pyrimido[5,4-b][1,4]oxazin-8-yl)-3-fluorobenzonitrile] | 62.7 | 40 | – | –
CC(C)(C)OC(=O)N1CCN(C(=O)CN2CCC(Nc3ncnc4c3OCCN4c3ccc(C#N)cc3F)CC2)CC1 [Compound 25, tert-Butyl 4-(2-(4-((8-(4-cyano-2-fluorophenyl)-7,8-dihydro-6H-pyrimido[5,4-b][1,4]oxazin-4-yl)amino)piperidin-1-yl)acetyl)piperazine-1-carboxylate] | 100 | 90 | – | –
CC(C)c1noc(N2CCC(COc3ccc(-c4ccc(S(C)(=O)=O)cc4)nc3)CC2)n1 [GSK-1292263, reference compound] | – | – | – | EC50 (human GPR119): 6.6 nM

Further lines, with some results ahead:

Emax (human GPR119; [1]) [%] | EC50 (human GPR119; [2]) [nM] | GPR119 activation %max (inherent activity) (human GPR119; [1]) [%] | Compound | further results
63.5 | 200 | – | CC(C)(C)OC(=O)N1CCC(Nc2ncnc3c2OCCN3c2ccc(C#N)cc2F)CC1 [Compound 12, tert-Butyl 4-((8-(4-cyano-2-fluorophenyl)-7,8-dihydro-6H-pyrimido[5,4-b][1,4]oxazin-4-yl)amino)piperidine-1-carboxylate] | –
– | 12 | 146.3 | CC(C)OC(=O)N1[C@@H]2CC[C@H]1C[C@@H](Nc1ncnc3c1OCCN3c1ccc(C#N)cc1F)C2 [Compound 15, Isopropyl (endo)-3-((8-(4-cyano-2-fluorophenyl)-7,8-dihydro-6H-pyrimido[5,4-b][1,4]oxazin-4-yl)amino)-8-azabicyclo[3.2.1]octane-8-carboxylate] | EC50 ratio compound 15 vs. compound 22 (human GPR119; carbamate substituted derivatives, 15 vs. 22): 10 times; blood glucose AUC0–120 min (C57BL/6N mice; 15 mg/kg single dose): 21.1 ± 3.92 mmol·h/L; reduction of blood glucose AUC0–120 min (C57BL/6N mice; 15 mg/kg single dose): 14.5%; blood glucose AUC0–120 min (C57BL/6N mice; 30 mg/kg single dose): 18.9 ± 2.58 mmol·h/L; reduction of blood glucose AUC0–120 min (C57BL/6N mice; 30 mg/kg single dose): 23.4%; blood glucose reduction effect (C57BL/6N mice): dose-dependent manner
– | 130 | 60.5 | CCc1cnc(N2[C@@H]3CC[C@H]2C[C@@H](Nc2ncnc4c2OCCN4c2ccc(C#N)cc2F)C3)nc1 [Compound 16, 4-(4-(((endo)-8-(5-Ethylpyrimidin-2-yl)-8-azabicyclo[3.2.1]octan-3-yl)amino)-6,7-dihydro-8H-pyrimido[5,4-b][1,4]oxazin-8-yl)-3-fluorobenzonitrile] | –
– | 250 | 71.2 | N#Cc1ccc(N2CCOc3c(N[C@H]4C[C@H]5CC[C@@H](C4)N5c4ncc(Cl)cn4)ncnc32)c(F)c1 [Compound 17, 4-(4-(((endo)-8-(5-Chloropyrimidin-2-yl)-8-azabicyclo[3.2.1]octan-3-yl)amino)-6,7-dihydro-8H-pyrimido[5,4-b][1,4]oxazin-8-yl)-3-fluorobenzonitrile] | –
66.1 | 120 | – | CC(C)OC(=O)N1CCC(Nc2ncnc3c2OCCN3c2ccc(C#N)cc2F)CC1 [Compound 22, Isopropyl 4-((8-(4-cyano-2-fluorophenyl)-7,8-dihydro-6H-pyrimido[5,4-b][1,4]oxazin-4-yl)amino)piperidine-1-carboxylate] | –
